Measured values from patent US10836726B2, “AZO-quaternary pyridinium salts with acid-enhanced antibacterial efficacy, methods of use, methods of synthesis, and uses thereof” (priority 2016, dated 2020).

Key:
Type in all cases: cell-based
[1] = tested on: Escherichia coli (E. coli, K12); experiment: Bacterial growth curves (OD600) after exposure in pH buffers
Method: (§1) Azo-QPS-C16 was effective on both […] bacteria. The ability of bacteria to proliferate after exposure to Azo-QPS-C16 was characterized by adding growth medium and measuring the optical density (OD) at 600 nm every 15 minutes in pH 4.1, 5.8, and 7.9 buffer. […] However, exposure at pH 7.9 required a much higher concentration (40 μg/mL) to inhibit cell growth. […] The pH dependence of bactericidal activity of Azo-QPS-C16 in terms of minimum bactericidal concentration (MBC) was evaluated by inoculating cultures onto a Lysogeny Broth (LB) agar plate after treating the cells with a twofold dilution series of Azo-QPS-C16.
(§2) Bacterial strains and growth conditions. […]
(§3) In a 96-well plate, 2 μL of Azo-QPS-C16 at various concentrations in dimethyl sulfoxide (DMSO) were added to 98 μL of bacteria suspension per well for a final concentration ranging from a 2-fold dilution series between 40 to 1.25 μg/mL of Azo-QPS-C16. […] E. coli were cultured at 37° C., and the OD600 of each well was measured by a Tecan Spark microplate reader (Männedorf, Switzerland) every 15 minutes for up to 19 hours, with 30 seconds shaking before each measurement. S. mutans were grown at 37° C. with 5% CO2, and the OD600 of each well was measured periodically using a Molecular Devices (Sunnyvale, Calif.) SpectraMax M5 microplate reader. […]

[2] = tested on: Streptococcus mutans (S. mutans, UA159); experiment: Minimum bactericidal concentration (MBC) determination by agar colony formation; conditions: more effective in acidic conditions
Excerpt: The inventor observed similar pH-sensitive antibacterial activity of Azo-QPS-C16 towards the Gram-positive, lactic acid producing, cariogenic bacteria S. mutans.
Bacterial strains and growth conditions. Streptococcus mutans (S. mutans, UA159) and Escherichia coli (E. coli, K12) were purchased from ATCC (American Type Culture Collection, Manassas, Va., USA). Todd Hewitt Broth (THB), and Lysogeny Broth (LB) powder and agar were purchased from BD (Becton, Dickinson and Company, Franklin Lakes, N.J., USA). Planktonic cultures were inoculated from 25% (by volume) glycerol frozen stocks stored at −80° C. E. coli cultures were grown in LB at 37° C. in a shaker-incubator. S. mutans cultures were grown in THB at 37° C. with 5% (by volume) CO2 overnight.
as §3

[3] = tested on: Escherichia coli (E. coli, K12); experiment: as above; conditions: MBC increased as pH increased
Method: as §1, §2, §3

Question: What does the source list for `C=C(C)C(=O)Oc1ccc(/N=N/c2cc[n+](CCCCCCCCCCCCCCCC)cc2)cc1.[Br-]` [Azo-QPS-C16, (E)-1-hexadecyl-4-((4-(methacryloyloxy)phenyl)diazenyl)-pyridinium bromide]?
Answer: concentration that fully inhibited E. coli growth up to 19 hours ([1]; exposure at pH 4.1, 45 min treatment, OD 600 nm): 2.5 µg/mL; concentration required to inhibit cell growth ([1]; exposure at pH 7.9, E. coli): 40 µg/mL; MBC-based effectiveness in acidic versus mildly basic conditions [2]: 8 fold; difference in MBC between pH 4.1 and pH 7.9 [3]: 16 fold
